Measurements published in US20030176501A1 (priority 2000, published 2003).

Columns and labels:
[1] = design: species or system human; settings: in vivo
HMG-CoA reductase = biological target: T1, HMG-CoA reductase (Homo sapiens, UniProt P04035); settings: in vivo, po
T1 sequence (P04035 1-888): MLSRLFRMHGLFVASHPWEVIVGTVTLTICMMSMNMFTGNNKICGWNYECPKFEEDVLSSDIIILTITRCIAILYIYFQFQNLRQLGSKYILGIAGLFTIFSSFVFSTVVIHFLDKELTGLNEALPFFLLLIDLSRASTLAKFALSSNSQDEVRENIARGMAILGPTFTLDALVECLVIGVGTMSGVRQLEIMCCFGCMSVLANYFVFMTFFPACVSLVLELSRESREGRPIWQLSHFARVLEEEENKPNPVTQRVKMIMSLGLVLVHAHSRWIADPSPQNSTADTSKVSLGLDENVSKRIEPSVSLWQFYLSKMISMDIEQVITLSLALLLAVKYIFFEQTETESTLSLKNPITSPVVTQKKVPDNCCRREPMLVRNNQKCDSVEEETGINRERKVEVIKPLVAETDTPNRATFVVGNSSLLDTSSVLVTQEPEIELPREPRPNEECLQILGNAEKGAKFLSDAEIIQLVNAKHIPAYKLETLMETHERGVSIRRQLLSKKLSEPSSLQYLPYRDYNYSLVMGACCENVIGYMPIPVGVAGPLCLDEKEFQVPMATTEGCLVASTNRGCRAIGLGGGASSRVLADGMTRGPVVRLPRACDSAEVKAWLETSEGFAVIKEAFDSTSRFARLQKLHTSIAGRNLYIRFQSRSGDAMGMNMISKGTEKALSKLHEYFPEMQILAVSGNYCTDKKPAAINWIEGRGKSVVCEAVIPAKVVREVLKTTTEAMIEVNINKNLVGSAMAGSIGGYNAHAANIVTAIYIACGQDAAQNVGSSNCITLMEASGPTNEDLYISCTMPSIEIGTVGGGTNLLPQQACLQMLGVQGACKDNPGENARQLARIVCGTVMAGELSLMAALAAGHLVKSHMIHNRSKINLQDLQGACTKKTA

In the case of CCC(C)(C)C(=O)O[C@H]1C[C@@H](C)C=C2C=C[C@H](C)[C@H](CC[C@@H](O)C[C@@H](O)CC(=O)O)[C@H]21 [SVA, dihydroxy open acid simvastatin], the “apparent t1/2, effect of itraconazole” value [1] is reported as “essentially unchanged”, the “t½, SV in plasma” value ([1]; male, human, po) is reported as 6.7 (1.7) hr and the “Cmax, Active Inhibitors” value (HMG-CoA reductase) is reported as 5.7 ± 3.0 ng eq/mL.
